For 17 compounds, TGI and GI50 results are on record in PubChem BioAssay (NCI).

The structures appear in SMILES notation.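 Values below derive from 48-hour exposures of cells grown in 96-well plates, with endpoints linearly interpolated between the two concentrations bracketing the appropriate inhibition level. Here, GI50 denotes the concentration required for 50% inhibition of growth. TGI marks complete inhibition of growth.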 Where only a bound is given, the exact number is not on record here.

Among the test systems are DMS 273 small cell lung; KM20L2 colon; XF 498 CNS; HOP-18 NSCLC; RXF-631 renal.
Common to all, as to assay: NCI anticancer screen, dose series, 48 h

On to `CCOc1ccccc1N=Nc1ccc2oc(=O)c(C(C)=O)cc2c1`, for which the TGI in the assay on DMS 273 small cell lung, in the assay with KM20L2 colon and with XF 498 CNS was over 100 µM throughout.
Regarding `CC1=CC2C(C=C1)S(=O)(=O)N1CC21c1ccccc1` (centres undefined), the TGI with DMS 273 small cell lung, in the assay on HOP-18 NSCLC and in the assay on KM20L2 colon was over 100 µM each time.
For `CC1=C(c2nc3ccccc3s2)C(=O)OC1(C)C`, the TGI in the assay on DMS 273 small cell lung, in the assay on KM20L2 colon, with RXF-631 renal and with XF 498 CNS was over 100 µM each time.
For `CCOC1=C2N=C(C(CC)c3ccccc3F)N=C2C(=O)c2ccccc21` (centres undefined), the TGI in the assay with DMS 273 small cell lung, in the assay on KM20L2 colon and with RXF-631 renal was over 100 µM in each case.
Consider `Cc1cc2ncn(-c3nc4ccccc4nc3C(C#N)S(C)(=O)=O)c2cc1C` (centres undefined), for which the TGI in the assay with DMS 273 small cell lung, in the assay on KM20L2 colon and in the assay with XF 498 CNS was over 100 µM each time.
As to `N#CC(NNC(=O)Cc1ccccc1)c1cccc(O)c1` (centres undefined), the TGI in the assay with DMS 273 small cell lung and in the assay with HOP-18 NSCLC was over 100 µM in each case.
For `COc1ccc2[nH]c3c(c2c1)[C@H](c1ccccc1)C[C@@H]1C(=O)N(c2ccccc2)C(=O)[C@H]31`, the TGI with DMS 273 small cell lung is over 100 µM; in the assay on HOP-18 NSCLC, 6.5 µM; in the assay on KM20L2 colon it was over 100 µM; with RXF-631 renal, over 100 µM; with XF 498 CNS, 55.8 µM.
Turning to `CCOC(=O)c1c2ccc(/C=C/c3ccccn3)ccc-2c(C(=O)OCC)c1N`, the TGI with DMS 273 small cell lung, in the assay on HOP-18 NSCLC, in the assay with KM20L2 colon and in the assay on RXF-631 renal was over 100 µM each time.
Take `O=C1[C@@H]2C(c3ccc(Br)cc3)=NO[C@@H]2C(=O)N1c1ccc(Cc2ccc(N3C(=O)[C@H]4C(c5ccc(Br)cc5)=NO[C@H]4C3=O)cc2)cc1`: the TGI in the assay with DMS 273 small cell lung, in the assay with HOP-18 NSCLC, with KM20L2 colon and with RXF-631 renal was over 40 µM throughout. In addition, the GI50 in the assay with HOP-18 NSCLC and in the assay on KM20L2 colon was over 40 µM in each case.
Compound `O=Cc1c[nH]c2c(=O)[nH]cnc12` came in with a TGI in the assay with HOP-18 NSCLC of over 100 µM.
As to `COc1ccc(N2C(=O)c3c(c4[nH]c5ccccc5c4c4ccc(C(C)(C)C)cc34)C2=O)cc1`, the TGI in the assay on DMS 273 small cell lung is over 100 µM; in the assay with HOP-18 NSCLC, over 100 µM; with KM20L2 colon it was over 100 µM; with RXF-631 renal it was over 100 µM; in the assay with XF 498 CNS, 49.8 µM.
Consider `O=C(Cc1ccccc1)NN1C(=O)C(Cl)C1c1ccccc1Cl` (centres undefined), for which the TGI in the assay on DMS 273 small cell lung, in the assay with HOP-18 NSCLC, in the assay with KM20L2 colon and in the assay on XF 498 CNS was over 100 µM throughout.
Regarding `CC(C)c1cccc(C(C)C)c1NC(=O)C(=O)Cc1nc2ccc([N+](=O)[O-])cc2[nH]c1=O`, the TGI with DMS 273 small cell lung, in the assay with HOP-18 NSCLC, in the assay on KM20L2 colon and with RXF-631 renal was over 100 µM each time.
On to `COc1cc2ccc3c4ccccc4cnc3c2cc1OC`, for which the TGI with HOP-18 NSCLC, in the assay on KM20L2 colon and in the assay on RXF-631 renal was over 100 µM each time.
For `COC(=O)C(=O)C(C(=O)OC)C(=O)C(=O)Nc1c(C)cccc1C` (centres undefined), the TGI in the assay on HOP-18 NSCLC, in the assay with KM20L2 colon, with RXF-631 renal and in the assay with XF 498 CNS was over 100 µM in each case.
As to `Nc1nc2c(N)cc(C(F)(F)F)cc2nc1-c1ccccc1`, the TGI with DMS 273 small cell lung, with HOP-18 NSCLC, in the assay on KM20L2 colon and in the assay with XF 498 CNS was over 100 µM each time.
In the assay on KM20L2 colon, `COC(=O)C1CC2C=CC=CC(=O)C2(C)C1` (centres undefined) gave a TGI of over 100 µM.
